Assay results: patent US12410211B2, “V1A receptor partial agonist and method of use” (PharmaIN Corporation, priority 2020, dated 2025)
Read-outs that look alike come from different tables or passages of the source. Marks after values point to notes of the source that are not given here.

Columns and labels:
[1] = Therapeutic index (NOAEL/NOEL): paleness, lethargy, ataxia observation in Sprague-Dawley rats (Example 7); assay type: in vivo; conditions: for Paleness (Duration, hrs; SD) / Highest dose with no-observed effect level or paleness (NOEL) / NOAEL/NOEL (therapeutic index) / NOAEL at 24 h / NOAEL: S.C.; for NOAEL at 24 h: male, Sprague-Dawley; for NOAEL at 24 h / NOAEL: read-out: Highest dose with no-observed adverse effect level without lethargy (NOAEL)
Description: As used herein, the term “therapeutic index” (TI; also referred to as therapeutic ratio) is a quantitative measure of the relative safety of a drug. […] For the purpose of the present application, lethargy is a lack of energy and/or sleepiness which is visually observed in rats as a lack of mobility, such as a lack of mobility even in the presence of human activity. For the purpose of present specification, peripheral vasoconstriction is visually observed by a paleness of the extremities (e.g., skin of hands, feet, ears, and lips). In rats, peripheral vasoconstriction is determined by a side-by-side comparison of ear paleness in treated subjects (e.g., Sprague Dawley rats, a white rat with easily visualizable changes in redness/paleness) vs. untreated control subjects. The V1a agonist (or partial agonist) with a high therapeutic index will have a better safety profile than that with a low therapeutic index by providing a wider margin of safety for dosing during the treatment of the disease. This NOAEL/NOEL ratio, being a quantitative measure of the relative safety, is a comparison of the amount of a therapeutic agent that causes the therapeutic effect (useful effect, vasoconstriction for the purpose of the present specification) to the amount that causes toxicity. A V1a agonist that causes severe vasoconstriction will affect not only the peripheral vessels, with several layer of smooth muscles, but also other vessels present in other organs (e.g., heart, lungs, kidney, brain) and this will result in observed lethargy and eventually ataxia. A partial agonist is less likely to reach such an extreme level of vasoconstriction and is believed to have a higher therapeutic index.
In this study, 8 to 10 weeks male Sprague-Dawley rats (Charles River; Wilmington, MA) under isoflurane anesthesia (n=3 or 6) were intravenously (IV) or subcutaneously (SC) injected or administered with various test articles. Prior to administration of test articles, the injection area was clipped free of fur, to allow for clear visualization of the dose site, and animal weight was measured and recorded. Animals were housed two per cage. […] Lethargy is when the animal eyes cannot fully open and is associated deep breathing and limited of movement even in the presence of human.

V1a receptor = target: T1, V1a receptor (Homo sapiens, UniProt P37288); experiment: V1a Human Vasopressin GPCR Cell Based Agonist Calcium Flux Assay; conditions: for Emax: read-out: V1a Highest agonist effect (% of AVP)
T1 construct: host or cells: CHO cells
T1 sequence (P37288 whole entry): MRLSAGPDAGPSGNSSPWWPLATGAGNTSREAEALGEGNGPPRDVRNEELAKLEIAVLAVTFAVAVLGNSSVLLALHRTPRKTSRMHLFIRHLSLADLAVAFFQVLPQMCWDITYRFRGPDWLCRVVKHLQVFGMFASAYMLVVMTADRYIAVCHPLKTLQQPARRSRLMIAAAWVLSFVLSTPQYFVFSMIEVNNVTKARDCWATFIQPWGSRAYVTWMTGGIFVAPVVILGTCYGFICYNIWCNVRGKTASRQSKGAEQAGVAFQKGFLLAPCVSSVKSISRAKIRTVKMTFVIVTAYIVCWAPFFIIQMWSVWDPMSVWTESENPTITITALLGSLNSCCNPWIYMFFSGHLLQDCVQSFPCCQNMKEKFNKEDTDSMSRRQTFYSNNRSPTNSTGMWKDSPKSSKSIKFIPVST
Method: Peptides of Formula (I) include Mpa-Tyr-Phe-Hgn-Asn-Cys-Pro-Lys(X)a-Gly-NH2 [SEQ ID NO. 24]; where (X)a is a peptide with “a” residues and each residue X is independently selected from Gly, and a D- or L-amino acid version of Ala, Lys, Orn, Glu, and Asp, where “a” is 0-10. V1a Human Vasopressin GPCR Cell Based Agonist Calcium Flux Assay were conducted at Eurofins Cerep SA (France) on a fee for service basis. Human recombinant CHO cells expressing human V1 receptors were distributed in microplates. Intracellular calcium signal was detected by fluorimetry, and the signal was acquired before and after addition of a known agonist concentration. The following agonist concentrations were tested (nM); 0.0128, 0.064, 0.32, 1.6, 8, 40, 200, and 1,000. […] All assays were performed in duplicate. Changes in fluorescence intensity reflected changes in the concentration of free cytosolic calcium. […] The half-maximal effective concentration (EC50) was determined by a non-linear regression analysis of the concentration-response curves generated with mean replicate values using Hill equation curve fitting (Cerep, I'Evescault, France).
V1a Human Vasopressin GPCR Cell Based Agonist Calcium Flux Assay were conducted using human recombinant CHO cells expressing human V1 receptor. Briefly, human recombinant CHO cells expressing human V1 receptor were distributed in microplates at 4.5×10^4 cells/well. The fluorescent probe (Fluo4 Direct, Invitrogen) mixed with probenicid in HBSS buffer (Invitrogen) complemented with 20 mM HEPES (Invitrogen) (pH 7.4) is then added into each well and equilibrated with the cells for 60 min at 37° C. then 15 min at 22° C. Thereafter, the assay plates are positioned in a microplate reader (CellLux, PerkinElmer) which is used for the addition of the test compound, reference agonist or HBSS buffer (basal control), and the measurements of changes in fluorescence intensity which varies proportionally to the free cytosolic Ca^2+ ion concentration. The following agonist concentrations were tested (nM), 0.0128, 0.064, 0.32, 1.6, 8, 40, 200, and 1,000. […] All assays were performed in duplicate. Changes in fluorescence intensity reflected changes in the concentration of free cytosolic calcium. […] Referring to FIG. 3 and Table 4, the half-maximal effective concentration (EC50) was determined by non-linear regression analysis of the concentration-response curves generated with mean replicate values using Hill equation curve fitting (Cerep, I'Evescault, France).

[2] = at the Marked adverse effect dose
[3] = at the Mild adverse effect dose
[4] = Table 3, cells printed in μM, read-out: Estimated V1a EC50, n = 2

Row | Structure (SMILES) | Paleness (Duration, hrs; SD) [1, 2] | Paleness (Duration, hrs; SD) [1, 3] | Paleness (Duration, hrs; SD) ([1]; at the NOAEL dose) | Paleness (Duration, hrs; SD) ([1]; at the NOEL dose) | Highest dose with no-observed effect level or paleness (NOEL) ([1]; rat) | NOAEL/NOEL (therapeutic index) ([1]; rat) | NOAEL at 24 h ([1]; in vivo, sc, rat) | Marked adverse effect (Lowest dose first showed Ataxia) ([1]; rat, in vivo, sc) | Mild adverse effect (Lowest dose first showed Lethargy) ([1]; rat, in vivo, sc) | EC50 (V1a receptor; FIG. 2 / FIG. 3 legend, n=2, read-out: EC50 for V1a receptor) | Emax (V1a receptor; Table 4, n = 2) | bioactivity duration compared with terlipressin ([1]; remark in NOAEL/NOEL column) | Emax (V1a receptor; Table 3, n = 2) | NOAEL ([1]; in vivo, sc, rat) | Ataxia (duration, hrs; SD) ([1]; rat, in vivo, sc) | Lethargy (duration, hrs; SD) ([1]; rat, in vivo, sc) | V1a Highest agonist effect (% of AVP); n = 2 (V1a receptor; Table 3) | EC50 (V1a receptor; [4])
1 | NCC(=O)NCC(=O)NCC(=O)NCC(=O)NCC(=O)NCC(=O)NCC(=O)NCC(=O)NCC(=O)NCCCC[C@H](NC(=O)[C@@H]1CCCN1C(=O)[C@@H]1CSSCCC(=O)N[C@@H](Cc2ccc(O)cc2)C(=O)N[C@@H](Cc2ccccc2)C(=O)N[C@@H](CCC(N)=O)C(=O)N[C@@H](CC(N)=O)C(=O)N1)C(=O)NCC(N)=O [SEQ ID NO. 23, Mpa-Tyr-Phe-Gln-Asn-Cys-Pro-Lys(X)a-Gly-NH2; (X)a = (Gly)9] | (>6.46)* hrs | (6.23 ± 0.05) hrs | (>5.09)* hrs | None observed | 0.0015 mg/kg | 333 | 0.5 mg/kg | 5.0 mg/kg | 1.5 mg/kg | 0.0126 µM | 55.9% |  |  |  |  |  |  | 
2 | NCCCC[C@H](NC(=O)[C@@H]1CCCN1C(=O)[C@@H]1CSSCCC(=O)N[C@@H](Cc2ccc(O)cc2)C(=O)N[C@@H](Cc2ccccc2)C(=O)N[C@@H](CCCC(N)=O)C(=O)N[C@@H](CC(N)=O)C(=O)N1)C(=O)NCC(N)=O [SEQ ID NO. 25, Mpa-Tyr-Phe-Hgn-Asn-Cys-Pro-Lys-Gly-NH2] | (4.9 ± 0.05) hrs | (5.66 ± 0.83) hrs | (3.78 ± 0.05) hrs | None observed | 0.0015 mg/kg | 10 | 0.015 mg/kg | 0.15 mg/kg | 0.05 mg/kg |  |  | 3x longer | 42.8% |  |  |  |  | 
3 | CCCCCCCCCCCC(=O)NCCCC[C@H](NC(=O)[C@@H]1CCCN1C(=O)[C@@H]1CSSCCC(=O)N[C@@H](Cc2ccc(O)cc2)C(=O)N[C@@H](Cc2ccccc2)C(=O)N[C@@H](CCCC(N)=O)C(=O)N[C@@H](CC(N)=O)C(=O)N1)C(=O)NCC(N)=O [SEQ ID NO. 27, Mpa-Tyr-Phe-Hgn-Asn-Cys-Pro-Lys(X)a-Gly-NH2; (X)a = Lauric acid] |  |  |  |  | 0.1 mg/kg | 90 (dose too |  | >9 mg/kg | >9 mg/kg |  |  |  |  | 9 mg/kg | None Observed | None Observed | inactive | > 10 µM
4 | CC(=O)NCCCC[C@H](NC(=O)[C@@H]1CCCN1C(=O)[C@@H]1CSSCCC(=O)N[C@@H](Cc2ccc(O)cc2)C(=O)N[C@@H](Cc2ccccc2)C(=O)N[C@@H](CCCC(N)=O)C(=O)N[C@@H](CC(N)=O)C(=O)N1)C(=O)NCC(N)=O [SEQ ID NO. 28, Mpa-Tyr-Phe-Hgn-Asn-Cys-Pro-Lys(X)a-Gly-NH2; (X)a = Ac] |  |  |  |  | 0.1 mg/kg | 3 |  | 3 mg/kg | 1 mg/kg |  |  |  | 30% | 0.33 mg/kg |  |  |  | > 10 µM
